Point of comparison: `CC(C)C(=O)N[C@H]1CC[C@H](CCN2CCN(c3nccc4c3OCC4)CC2)CC1`, melting point 204 °C. Against it:
- Cc1c(C)c2c(c(C)c1N)C(c1ccc(C(C)C)cc1)CO2 (stereo unspecified) — lower, 171 to 173 °C
- CC(C(=O)O)c1ccc(C(=O)c2ccco2)cc1 (stereo unspecified) — lower, 86 to 88 °C
- O=C1CCc2ccccc2CN1CO — lower, 109 to 110 °C
- CCOC(=O)C1=C(CS(=O)c2ccccc2)Nc2ccnc(OC(C)C)c2C1c1ccccc1C(F)(F)F (stereo unspecified) — higher, 206 to 208 °C
- COc1cc(C(O)c2ccccc2S(=O)(=O)Nc2ccccc2C)cc2c1OCO2 (stereo unspecified) — lower, 155 to 158 °C
- Cn1c(C(F)(F)F)cc(=O)n(-c2cc(OC3COC(=O)O3)c(Cl)cc2F)c1=O (stereo unspecified) — lower, 165 to 167 °C
- Cc1ccc2[nH]c(=O)n(CCS)c(=O)c2c1 — higher, 309 to 311 °C
- CCOC(=O)C1=C(N)Nc2ccnc(OC(C)C)c2C1c1ccccc1C(F)(F)F (stereo unspecified) — lower, 173 to 175 °C
- O=Cc1ccc(C(F)(F)F)cc1[N+](=O)[O-] — lower, 63 °C
- O=c1[nH]c(=O)n(C2CC(F)C(CO)O2)cc1C(Cl)=CI (stereo unspecified) — lower, 87 °C
- NC(=CC(=O)C1CC1)c1ccncc1 — lower, 159 to 166 °C
- CCN(CC)c1nc(Cl)nc2c(SC)ncnc12 — lower, 90 to 91 °C
- CNC(=N[N+](=O)[O-])N(Cc1cnc(Cl)s1)C(=O)N1CCOCC1 — lower, 130 to 131 °C
- CCNc1cc(-c2c[nH]c(C)n2)ccn1 — higher, 214 to 216 °C
- NC(=O)C1CCN(c2cc(-c3ccc(Cl)cc3)nc3ccc(Cl)cc23)CC1 — higher, 272 to 275 °C
- CS(=O)c1ccc(-n2cnc3ccc(-c4nnc(CC(F)(F)F)o4)cc32)cc1 (stereo unspecified) — lower, 184 to 185 °C
- CC1=Nc2ccccc2CC(c2ccsc2C)N1C (stereo unspecified) — lower, 91 to 92 °C
- N#Cc1cccc(CN2CCc3sc(Nc4ncc(F)cn4)nc3-c3cn[nH]c32)c1 — higher, 282 to 284 °C
- O=C(Cc1cccc2ccccc12)Nc1cc([C@H]2C[C@@H](NC(=O)c3cccc([N+](=O)[O-])c3)C2)[nH]n1 — lower, 124 °C
- Cc1nnc2n1-c1sc(CC(=O)N3CCOCC3)cc1C(c1ccccc1Cl)=NC2C (stereo unspecified) — lower, 126 to 129 °C
- CCOC(=O)c1cn2c(cc(OC)c3cc(OC)c(OC)cc32)n1 — lower, 195 to 197 °C
- COC(=O)c1ccccc1Nc1c(OC)ccc2ccccc12 — lower, 144 to 146 °C
- ClCc1nc(NCc2ccccn2)c2c(-c3ccccc3)csc2n1 — lower, 97 to 99 °C
- CC(=O)Nc1nc(NC(C)=O)nc(-c2ccc(Oc3ccccc3)cc2)n1 — higher, 243 to 245 °C
- CCN(CC)C(=O)C=Cc1ccc(Cl)c(Cl)c1 — lower, 60.7 °C
- COc1c(OCCCCCC(=O)N(CCO)C2CCCCC2)ccc2c1CN1CC(=O)NC1=N2 — higher, 208 to 209 °C
- COc1ccc2c(c1)CC(=O)N2Nc1ccncc1 — lower, 169 to 171 °C
- O=C(Oc1ccc(F)cc1Cl)Oc1ccc(F)cc1Cl — lower, 91 to 92 °C
- CC(=S)N(C)Cc1ccc(F)cc1 — lower, 99 to 104 °C
- O=C(NCCCN1NC=NN1)c1ccccc1[N+](=O)[O-] — lower, 148 to 150 °C
- CC(=O)NCCC1CCc2ccc3nc(CCc4ccccc4)oc3c21 (stereo unspecified) — lower, 85 to 87 °C
- CC(C)On1nnc2ccc(Cn3ccnc3)cc21 — lower, 114 °C
- COC(=O)NC1=NCC(c2ccccc2)CN1C (stereo unspecified) — lower, 176 to 177 °C
- O=C1CCC(N2Cc3c(OCc4ccc(CN5CCOCC5)c(F)c4)cccc3C2=O)C(=O)N1 (stereo unspecified) — higher, 263 to 265 °C
- O=C(O)C1CNc2cc(C(F)(F)F)ccc2O1 (stereo unspecified) — lower, 105 to 107 °C
- C1=CCC(OC2=CC=CC2)=C1 — lower, 74 °C
- O=C(Cc1ccccc1)c1cc(Br)ccc1O — lower, 83 to 86 °C
- O=C(c1cc2cc3[nH]c(=O)oc3cc2[nH]1)N1CCC(Cc2ccc(F)cc2)CC1 — higher, 244 to 247 °C
- CC(=O)C1CCC2C3CC=C4C=CCCC4(C)C3CCC12C (stereo unspecified) — lower, 135 to 136 °C
- CCCC(=O)c1cnc2c(C)cccc2c1Nc1cc(OC)ccc1OC — lower, 115 to 116 °C
- O=C(CBr)c1cc2ccccc2[nH]1 — lower, 125 to 130 °C
- COc1ccc(-c2cc(C)c3nc(OC)ccc3c2)cc1 — lower, 104 to 106 °C
- CC(C)(O)C(=O)Nc1ccc(Sc2ccccc2)cc1F — lower, 91 to 92.5 °C
- COc1ccc(CN2C(=O)CN(Cc3cccc(I)c3)S2(=O)=O)cc1 — lower, 98 to 100 °C
- COc1cc(O)cc(-c2cc3ccc(O)cc3o2)c1CC=C(C)C — lower, 93 to 94 °C
- CN1CCN2c3ccc(Cl)cc3C(c3ccco3)=NCC2C1 (stereo unspecified) — higher, > 240 °C
- CC(=O)Nc1nc2c(Nc3ncnc4cc(Cl)ccc34)cccc2s1 — higher, 230 °C
- Cc1cc(C(N)=NO)ccc1[N+](=O)[O-] — lower, 127 to 129 °C
- CC1C(=O)Oc2c1cccc2S(=O)(=O)c1ccccc1Cl (stereo unspecified) — lower, 94 to 96 °C
- Cc1cc(I)ccc1-n1c(C(F)(F)F)nn(C)c1=S — lower, 104 to 107 °C
- OCCc1ccc(OCCN2CCCCC2)cc1 — lower, 68 °C
- O=C1CC2CCSc3sccc3C2=NN1 (stereo unspecified) — higher, 215 to 217 °C
- O=[N+]([O-])c1ccc(NCCSCc2c[nH]cn2)nc1 — lower, 145 to 147 °C
- Cn1nc(N)c2cc3ccc(O)cc3nc21 — higher, 288 to 290 °C
- CNC1(c2ccccc2Cl)C(=O)N(S(=O)(=O)c2ccc(OC)cc2OC)c2c(F)cc(Cl)cc21 (stereo unspecified) — lower, 183 to 185 °C
- COc1ccc(-c2ccc(C)c(OCC(OC)OC)c2)cc1 — lower, 39 to 40 °C
- CCOCc1nc2c(N)nc(C)c(C)c2n1NCCCS(C)(=O)=O — lower, 150 to 155 °C
- COc1c(C=Cc2ccc(C=CC3=C(C#N)C(=C(C#N)C#N)OC3(C)C)s2)cc2c3c1CCCN3CCC2 — not separable, 201 to 204 °C
- CCCCCCCCOC(=O)c1cc(=O)c2c3c(ccc2o1)-c1ccc(Cl)cc1C(C)(C)O3 — lower, 111 to 113 °C
- COc1cc(OC)cc(C(C)N(C)CCCOc2ccc(S(=O)(=O)c3c(C(C)C)c4ccccc4n3C)cc2)c1 (stereo unspecified) — lower, 156 °C
- CSC(=NCc1cccc2ccccc12)NCC1CCN(S(=O)(=O)c2cccc3ccccc23)CC1 — lower, 111 to 113 °C
- COc1ccc(CCNC(=O)C2=C(C(=O)Nc3cc(OC4CCCC4)c(Cl)cc3F)CCCC2)cc1OC — lower, 159 to 161 °C
- CC(C)(C)c1cccc(S(=O)(=O)n2c(Cc3ccc(CNS(C)(=O)=O)cc3)cc3cc(C(F)(F)F)ccc32)c1 — lower, 96 °C
- Cc1cc(C(F)(F)C(F)(F)C(F)(F)C(F)(F)F)ccc1NC(=O)c1cccc(Br)c1C(=O)NC(C)C — lower, 190 to 191 °C
- COc1ccc(Sc2ccccc2CC(=O)O)cc1 — lower, 102 to 105 °C
- Cc1ccc(CNC(=O)c2cc3c(ccc4cnn(C[C@H](C)N)c43)o2)o1 — lower, 118 to 120 °C
- O=Cc1ccc(/C=C/c2ccncc2)cc1 — lower, 116 to 117 °C
- CCC(=O)c1cc(F)c(OCC2CC2(Cl)Cl)cc1F (stereo unspecified) — lower, 89 to 91 °C
- Cc1ccc(S(=O)(=O)c2ccc3c(c2)CCCC3)cc1 — lower, 130 to 132 °C
- CC#CC(C)(C)NC(=O)C(CC)Oc1cncc(Br)c1 (single isomer, unassigned; (-)) — lower, 95 to 97 °C
- CC(O)[C@@H](Cc1ccccc1)NC(=O)OC(C)(C)C (stereo partly specified) — lower, 127 °C
- O=C(N=CN1CCCCC1)C(O)(C(=O)N=CN1CCCCC1)c1ccc(Cl)c(Cl)c1 (stereo unspecified) — lower, 195 °C
- CN(C)C(=O)Cn1c(-c2ccc([N+](=O)[O-])cc2)nc2cccnc21 — not separable, 204 to 207 °C
- Cc1ccc(C=Cc2ccccc2)cc1C — lower, 76 °C
- COc1cc(C=CC(=O)N2CCN(c3nc(N)c4cc(OC)c(OC)cc4n3)CC2)cc(OC)c1 — lower, 132 to 135 °C
- CCOC(=O)COc1cccc2c1CCc1sc(SC(c3ccccc3)c3ccccc3)nc1-2 — lower, 124 to 126 °C
- CC1N=C(c2ccccc2Cl)c2cc([N+](=O)[O-])ccc2NC1=S (single isomer, unassigned; (+)) — higher, 258 to 260 °C
- Cc1ccc(NCc2ccc(C(=O)Nc3ccccc3NC(=O)OC(C)(C)C)cc2)cc1Nc1nccc(-c2cccnc2)n1 — lower, 125 °C
- Cn1c2c(cnc3c([N+](=O)[O-])cccc32)c(=O)n1C(=O)OC(C)(C)C — higher, > 250 °C
- O=c1cc(NCCN2CCN(c3cccc4c3OCCO4)CC2)cn[nH]1 — higher, 244 to 246 °C
- CCCc1c(OCCCS(=O)(=O)c2ccc(C(=O)OC)cn2)ccc(C(C)=O)c1O — lower, 114 to 116 °C
- COc1ccc(CSc2nnc(-c3ccc4c(c3)CCO4)o2)cc1F — lower, 121 to 122 °C
- O=C(CCCOCCc1ccc2ccccc2c1)c1ccc(F)cc1 — lower, 68 to 70 °C
- CCOC(=O)C(Br)=CC1C(C(=O)OC(C#N)c2cccc(Oc3ccccc3)c2)C1(C)C (stereo unspecified) — lower, 69 °C
- Cc1cccc(SCn2cc(Cl)cnc2=O)c1 — lower, 134 °C
- COC(OC)c1cccc(C=Cc2cccc(-n3cccc3)c2)c1 — lower, 108 to 110 °C
- O=c1nc(-c2ccccn2)sc2ccc(OCCCCCCO)cc12 — lower, 136 to 137 °C
- CNc1cc(Oc2ccc3c(c2)OCCN3C(=O)Nc2ccc(C)c(C(F)(F)F)c2)ncn1 — lower, 180 to 182 °C
- Cc1c(N2C[C@@H](NC(=O)C(F)(F)F)C3(CC3)C2)c(F)c(N)c2c(=O)c(C(=O)O)cn(C3CC3)c12 — higher, 246 to 248 °C
- c1ccc2c(c1)-c1ccccc1C2Cc1nc(COc2ccc(CCCn3ccnc3)cc2)co1 — lower, 145 to 146 °C
- CC(NCC#N)C(O)(Cn1cncn1)c1ccc(F)cc1F (stereo unspecified) — lower, 138 to 139 °C
- CC(=O)Nc1ccc(S(=O)(=O)N[C@H]2COCOC[C@H]2OC(C)=O)cc1 (relative stereo) — lower, 184 to 186 °C
- COC(=O)[C@H](CC(C)C)NC(=O)OCC1c2ccccc2-c2ccccc21 — lower, 86 to 87 °C
- COC(=O)CCc1ccc(N2CCN(c3ccc(C#N)cc3)C2=O)cc1 — lower, 160 to 162 °C
- CC(C)(O)CCCCCc1cccc(C=Cc2ccc(CO)c(CO)c2)c1 — lower, 93 to 95 °C
- CSc1nc(N)c2nsnc2n1 — lower, 197 to 199 °C
- CCOC(=O)/C=C/C(=O)N1C[C@H](NC(=O)OCc2ccccc2)C1=O — lower, 68 °C
- Cc1oc(-c2ccco2)nc1COc1cccc(CO)c1 — lower, 100 to 101 °C
- N#CCCn1ccc(NC(=S)NCC(F)(F)F)n1 — lower, 164 to 165 °C
- Nc1nc(N)c(C(=O)N=CNNC(=O)n2ccnc2)nc1F — higher, 227 to 230 °C

From a melting point compilation (Tetko et al.; mined from patent text by program, amines drawn as free bases though some values may be those of a salt)
